Values of other authors as cited in paper PMC11110755, “Structure-based virtual screening of unbiased and RNA-focused libraries to identify new ligands for the HCV IRES model system” (RSC Medicinal Chemistry, 2024).

Tested on: HCV IRES subdomain IIa
Design: method as in PMID 20564282
Conditions: previously reported, Fig. 1; read-out: EC50 (2-AP assay); cited from earlier work

Compound: CC(=O)c1ccc(C(=O)N[C@@H](CCCCN)C(=O)N2C[C@H](N)C[C@H](N)C2)cc1 [Compound 3]
- EC50: 270 µM
